From PubChem BioAssay AID493130 (Broad Institute, 2011)
Records with an inconclusive call do not appear. Active and inactive are the calls of the source.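 How the source made its calls: active means signal-lowering compounds whose fitted half-maximal concentration is at most ten times their highest tested dose; inconclusive means flat fit between -30 and -70%, or poor fit; inactive means flat within 30%, signal rising, or potency beyond limit.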

Molecular target: POS-1 (Caenorhabditis elegans) binding to mex-3 RNA
Assay: C. elegans POS-1 RNA interaction disruptors – biochemical, fluorescence polarization, cherry-picked samples, set 2, counter-screen for MEX-5 RNA-binding inhibitor project, dose response (AID 493130);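 further: POS-1 as maltose binding protein fusion made in E. coli with FITC RNA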
Settings: POS-1/mex-3 RNA fluorescence polarization, 1 h

Structure (SMILES)	AC50
Cc1oc2c(cc(NS(=O)(=O)c3ccc(C(C)C)cc3)c3ccccc32)c1C(=O)O	10.4 µM
CC(=O)Nc1ccc(S(=O)(=O)NNC(=O)C(=O)NNc2ccccn2)cc1	> 10 µM (inactive)
O=C(N/N=C/c1c(O)n(C2CC2)c(=S)[nH]c1=O)c1ccccc1O	6.64 µM
Cn1c(=O)c(Nc2ccc(Cl)cc2)c2c3c(cccc31)C(=O)c1ccccc1-2	0.907 µM
CCCC1=NN2C(=N)/C(=C\c3ccc(SCc4ccco4)o3)C(=O)N=C2S1	0.699 µM
Cc1occc1C(=O)N/N=C/C1=C(N2CCOCC2)C(=C\c2ccc(Cl)cc2Cl)/CC1	8.21 µM
CN1CC=C2C(C#N)=C(N)C(C#N)(C#N)[C@H](c3cccs3)[C@H]2C1	6.12 µM
CC1CC(=O)c2c(cc3c(-c4c(O)cc(O)c5c(O)c6c(cc45)OC(C)CC6=O)c(O)cc(O)c3c2O)O1 (configuration not stated)	8.29 µM
O=C(c1ccc(Cl)cc1)C1C2C(=O)N(c3ccccc3)C(=O)C2C2CCCN21 (configuration not stated)	5.95 µM
COC(=O)C1=COC(C)C2CN3CCc4c([nH]c5ccccc45)C3CC12 (configuration not stated)	7.17 µM
O=C(O)C1Nc2c(Cl)cc(Cl)cc2C2C=CCC12 (configuration not stated)	5.13 µM
COCCCNC(=O)c1ccc2c3c(onc13)-c1ccccc1C2=O	0.186 µM

Same assay, conditions: POS-1/mex-3 RNA fluorescence polarization, 1 h; at 10 µM (top of the series)

Structure (SMILES)	activity change, negative = inhibition
Cc1cc2c(C)nc(N/N=C/c3ccc([N+](=O)[O-])cc3)nc2o1	inactive
CC(C)CN1CCN(Cc2cccc3ncccc23)CC1CCO (configuration not stated)	inactive
FC(F)(F)c1ccc(Cl)c(-n2c(-c3cc(-c4ccco4)[nH]n3)n[nH]c2=S)c1	inactive
O=c1[nH]cnc2c1C(c1ccc(Cl)cc1)c1c(nc[nH]c1=O)O2	inactive
CCNC(=S)NNC(=O)c1ccccn1	inactive
COc1cccc(NCc2cc(=O)oc3cc(C)c(O)cc23)c1	inactive
O=C1S/C(=C\c2cccs2)C(=O)N1c1ccc(O)cc1	inactive
CN(N)c1ccc2c(C(F)(F)F)cc(C(F)(F)F)nc2n1	inactive
COc1cccc(NC2=C(NCCO)C(=O)c3ccccc3C2=O)c1	inactive
CCCOc1ccc([C@@H]2C3CN(C(=O)OCC)CC=C3C(C#N)=C(N)C2(C#N)C#N)cc1OC (some centres not stated)	inactive
O=C(O)c1cc(-c2ccco2)nc2cc3ccccc3cc12	inactive
CC(=O)N1CCc2c(sc(NC(=O)C3CCCN3S(=O)(=O)c3cccs3)c2C#N)C1 (configuration not stated)	inactive
O=[N+]([O-])c1ccc(/C=N/n2c(CO)nc3ccccc32)s1	inactive
CCc1nnc(NC(=O)CCN2C(=O)/C(=C/c3cc(OC)c(OC)c(OC)c3)SC2=S)s1	inactive
COCCNC(=S)NNC(=O)c1cccs1	inactive
N=c1c(C(=O)NCC2CCCO2)cc2c(=O)n3ccccc3nc2n1Cc1ccc(Cl)cc1 (configuration not stated)	inactive
O=c1[nH]cnc2c1C(c1ccccc1)c1c(nc[nH]c1=O)O2	inactive
Cc1cc(/C=C(\C#N)c2nc3ccccc3[nH]2)c(C)n1C	inactive

Structure (SMILES)	activity change, negative = inhibition
C[C@H](O)CC1=C[C@H](O)[C@@H](C)OC1=O	inactive
C=CCc1cccc2cc(C(=O)NNC(=O)CC#N)c(=O)oc12	inactive
Cn1c(C2=C(O)CN(c3ccccc3)C2=N)nc2ccccc21	inactive
Cc1cc(C)c[n+](-c2nc([O-])sc2C=O)c1	inactive
Cc1cc(C)c2c3c(sc2n1)C(c1ccccc1)C(C#N)=C(N)O3 (configuration not stated)	inactive
Oc1ccc(/C=N/Nc2ccc(Cl)nn2)c(O)c1O	inactive
O=c1[nH]c(=O)n(Cc2ccccc2)c(O)c1/C=C1\C=Nc2ccccc21	inactive
CC(=O)NN1C(=O)/C(=C/c2ccc(Br)o2)SC1=S	inactive
O=c1c2ccccc2nc(/C=C/c2ccc([N+](=O)[O-])o2)n1-c1ccc(O)cc1	inactive
CSc1ccc(/C=C/C(=O)c2ccc(NC(C)=O)cc2)cc1	inactive
Cc1cc(/C=C2/C(=N)N3C(=NC2=O)SN=C3S(C)(=O)=O)c(C)n1-c1ccc(F)cc1	inactive
CCc1cccc2cc3c(N)c(C(=O)Nc4ccc(S(=O)(=O)N5CCCC5)cc4)sc3nc12	inactive
CC(=O)Nc1ccc(S(=O)(=O)/N=C2/NC(=O)/C(=C\c3ccco3)S2)cc1	inactive
Oc1[nH]c(N=C2N=c3ccccc3=N2)c2ccccc12	inactive
CC(=O)CSc1ncnc2nc[nH]c12	inactive
Cc1cc(C)c2ccc(=S)[nH]c2n1	inactive
CCN(CC)c1ccc2nc3ccccc3[n+](CC)c2c1	inactive
